# From ChEMBL document CHEMBL4831511, “Fluorovinylsulfones and -Sulfonates as Potent Covalent Reversible Inhibitors of the Trypanosomal Cysteine Protease Rhodesain: Structure-Activity Relationship, Inhibition Mechanism, Metabolism, and In Vivo Studies” (J Med Chem, 2021)
# The source made the active and inactive calls. The calls are words filed in the database; no cut-off is given here.
# Experiments:
# [1] = target: T1, Rhodesain (Trypanosoma brucei rhodesiense, UniProt Q95PM0); assay: Inhibition of Trypanosoma brucei rhodesain assessed as fluorescence using Cbz-Phe-Arg-AMC as substrate measured at second inhibition step by fluorometric enzyme assays
# [2] = target: Rhodesain (Trypanosoma brucei rhodesiense) (UniProt Q95PM0); assay: Binding affinity to Trypanosoma brucei rhodesain assessed as protein-ligand adducts by MALDI-TOF MS analysis
# [3] = target: Proteasome Macropain subunit (Homo sapiens) (UniProt P49721); assay: Inhibition of trypsin-like activity of human 20S proteasome at 11 uM using boc-Leu-Arg-Arg-AMC as fluorogenic substrate by microplate reader relative to control
# [4] = organism: Homo sapiens; assay: Inhibition of alpha-chymotrypsin-like activity of human 20S proteasome at 11 uM using Succ-Leu-Leu-Val-Tyr-AMC as fluorogenic substrate by microplate reader relative to control
# [5] = organism: Homo sapiens; assay: Inhibition of caspase-like activity of human 20S proteasome at 11 uM using Cbz-Leu-Leu-Glu-AMC as fluorogenic substrate by microplate reader relative to control
# [6] = target: T1, Rhodesain; assay: Inhibition of Trypanosoma brucei rhodesain assessed as fluorescence using Cbz-Phe-Arg-AMC as substrate measured using Dixon equation by fluorometric enzyme assays
# [7] = target: Rhodesain (Trypanosoma brucei rhodesiense) (UniProt Q95PM0); assay: Inhibition of Trypanosoma brucei rhodesain assessed as rate constant of association using Cbz-Phe-Arg-AMC as substrate by fluorometric enzyme assays
# [8] = target: Rhodesain (Trypanosoma brucei rhodesiense) (UniProt Q95PM0); assay: Inhibition of Trypanosoma brucei rhodesain assessed as rate constant of dissociation of the final complex using Cbz-Phe-Arg-AMC as substrate by fluorometric enzyme assays
# [9] = target: Rhodesain (Trypanosoma brucei rhodesiense) (UniProt Q95PM0); assay: Reversible inhibition of Trypanosoma brucei rhodesain assessed as reversibility by measuring residual enzymatic activity using Cbz-Phe-Arg-AMC as substrate after 1 hr by fluorometry based dialysis experiment relative to control
# [10] = system: Trypanosoma brucei brucei; assay: Antiprotozoal activity against Trypanosoma brucei brucei TC211 assessed as luminescence incubated for 24 to 48 hrs by ATPlite assay; format: functional, organism-based
# [11] = system: HeLa; assay: Cytotoxicity against human HeLa cells by Alamar blue assay; format: functional
# [12] = target: T2, Procathepsin L (Homo sapiens, UniProt P07711); assay: Inhibition of human liver CatL assessed as fluorescence using Cbz-Phe-Arg-AMC as substrate measured at second inhibition step by fluorometric enzyme assays
# [13] = target: T3, Cathepsin B (Homo sapiens, UniProt P07858); assay: Inhibition of human liver CatB assessed as fluorescence using Cbz-Phe-Arg-AMC as substrate at 11 uM by fluorometric enzyme assays
# [14] = system: Dengue virus; assay: Inhibition of Dengue virus NS2B-NS3 protease assessed as fluorescent emission using boc-Gly-Arg-Arg-AMC at 11 uM by microplate reader relative to control
# [15] = system: cathepsin L (CatL) versus rhodesain; assay: Selectivity index, ratio of Ki for human liver CatL to Trypanosoma brucei rhodesain; settings: read-out: Selectivity Index
# [16] = target: T2, Procathepsin L; assay: Inhibition of human CatL assessed as fluorescence using Cbz-Phe-Arg-AMC as substrate measured using Dixon equation by fluorometric enzyme assays; parameters: species or system Liver
# [17] = target: T3, Cathepsin B; assay: Inhibition of human liver CatB assessed as fluorescence using Cbz-Phe-Arg-AMC as substrate by fluorometric enzyme assays
# [18] = system: Trypanosoma brucei brucei; assay: Antiprotozoal activity against Trypanosoma brucei brucei BS449 assessed as luminescence incubated for 24 to 48 hrs by ATPlite assay; format: functional, organism-based
# [19] = system: J774.1; assay: Cytotoxicity against mouse J774.1 cells by Alamar blue assay; format: functional
# T1 sequence (Q95PM0 whole entry): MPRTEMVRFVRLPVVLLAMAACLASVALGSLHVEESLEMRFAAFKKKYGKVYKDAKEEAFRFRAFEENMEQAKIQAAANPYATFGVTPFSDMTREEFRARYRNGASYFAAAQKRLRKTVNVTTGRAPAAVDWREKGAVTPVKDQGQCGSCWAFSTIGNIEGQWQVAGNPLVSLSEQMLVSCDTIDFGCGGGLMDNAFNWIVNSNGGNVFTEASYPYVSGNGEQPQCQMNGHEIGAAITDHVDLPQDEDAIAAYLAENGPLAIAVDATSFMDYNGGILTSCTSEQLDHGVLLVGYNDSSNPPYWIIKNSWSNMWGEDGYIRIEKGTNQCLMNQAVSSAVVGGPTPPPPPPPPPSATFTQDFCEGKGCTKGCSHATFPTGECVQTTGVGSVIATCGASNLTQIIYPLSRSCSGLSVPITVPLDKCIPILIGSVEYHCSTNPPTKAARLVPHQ
# Rhodesain (Trypanosoma brucei rhodesiense), sequence (Q95PM0 1-450): as the sequence (Q95PM0 whole entry) above
# T2 sequence (P07711 whole entry): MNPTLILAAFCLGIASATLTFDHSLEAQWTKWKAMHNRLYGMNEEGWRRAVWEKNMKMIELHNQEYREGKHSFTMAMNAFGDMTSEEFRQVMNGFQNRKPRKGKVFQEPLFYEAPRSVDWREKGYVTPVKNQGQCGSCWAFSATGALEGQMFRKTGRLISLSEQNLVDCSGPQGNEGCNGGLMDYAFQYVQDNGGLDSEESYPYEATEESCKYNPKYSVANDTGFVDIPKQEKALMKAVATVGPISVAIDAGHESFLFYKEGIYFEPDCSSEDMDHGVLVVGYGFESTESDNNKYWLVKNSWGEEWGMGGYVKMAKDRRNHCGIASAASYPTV
# Proteasome Macropain subunit (Homo sapiens), sequence (P49721 whole entry): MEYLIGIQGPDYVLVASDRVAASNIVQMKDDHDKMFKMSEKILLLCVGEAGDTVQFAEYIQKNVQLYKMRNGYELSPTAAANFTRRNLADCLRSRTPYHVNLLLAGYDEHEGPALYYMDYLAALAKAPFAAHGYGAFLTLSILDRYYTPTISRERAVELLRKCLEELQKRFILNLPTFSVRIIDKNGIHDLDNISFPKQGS
smiles,measurement,setting,value
CN1CCN(C(=O)N[C@@H](Cc2ccccc2)C(=O)N[C@H](/C=C(\F)S(=O)(=O)Oc2ccccc2)CCc2ccccc2)CC1,Ki,[1],108 nM
same,Activity,[2],Active
O=C(N[C@H](/C=C(\F)S(=O)(=O)Oc1ccccc1)CCc1ccccc1)[C@H](Cc1ccccc1)NC(=O)N1CCNCC1,Ki,[1],192 nM
O=C(N[C@@H](Cc1ccccc1)C(=O)N[C@H](/C=C(\F)S(=O)(=O)c1ccccc1)CCc1ccccc1)c1ccc2c(c1)OCCO2,inhibition,[3],inactive
same,inhibition,[4],inactive
same,inhibition,[5],26%
Cc1ccc(C[C@H](NC(=O)c2cc(F)cc(F)c2)C(=O)N[C@H](/C=C(\F)S(=O)(=O)Cc2ccccc2)CCc2ccccc2)cc1,Ki,[1],29 nM
O=C(N[C@@H](Cc1ccccc1)C(=O)N[C@H](/C=C(\F)S(=O)(=O)Oc1ccccc1)CCc1ccccc1)c1ccc2c(c1)OCCO2,Ki,[6],9 nM
same,K,[7],0.045 s⁻¹
same,K,[8],0.011 s⁻¹
same,Ki,[1],45 nM
Cc1ccc(C[C@H](NC(=O)c2ccncc2)C(=O)N[C@H](/C=C(\F)S(=O)(=O)c2ccccc2)CCc2ccccc2)cc1,inhibition,[3],12%
same,Activity,[9],29%
same,EC50,[10],1900 nM
same,inhibition,[4],13%
same,CC50,[11],> 100000 nM
same,inhibition,[5],28%
Cc1ccc(C[C@H](NC(=O)c2cc(F)cc(F)c2)C(=O)N[C@H](/C=C(\F)S(=O)(=O)Oc2ccccc2)CCc2ccccc2)cc1,Ki,[6],5 nM
same,K,[7],0.049 s⁻¹
same,K,[8],0.009 s⁻¹
same,Ki,[1],34 nM
Cc1cccc(C[C@H](NC(=O)c2ccncc2)C(=O)N[C@H](/C=C(\F)S(=O)(=O)c2ccccc2)CCc2ccccc2)c1,Ki,[12],49 nM
same,Ki,[1],25 nM
Cc1ccc(C[C@H](NC(=O)c2ccncc2)C(=O)N[C@H](/C=C(\F)S(=O)(=O)Oc2ccccc2)CCc2ccccc2)cc1,inhibition,[3],10%
same,Activity,[9],89%
same,inhibition,[13],38%
same,EC50,[10],1900 nM
same,inhibition,[14],inactive
same,Ki,[6],3 nM
same,selectivity ratio,[15],26
same,K,[7],0.075 s⁻¹
same,Ki,[12],313 nM
same,Ki,[16],78 nM
same,inhibition,[4],20%
same,K,[8],0.01 s⁻¹
same,Ki,[1],24 nM
same,CC50,[11],> 100000 nM
same,inhibition,[5],44%
Cc1ccc(C[C@H](NC(=O)c2ccncc2)C(=O)N[C@H](/C=C/S(=O)(=O)Oc2ccccc2)CCc2ccccc2)cc1,Ki,[1],0.45 nM
O=C(N[C@@H](Cc1ccccc1)C(=O)N[C@H](/C=C(\F)S(=O)(=O)Oc1ccccc1)CCc1ccccc1)c1ccncc1,inhibition,[3],inactive
same,Ki,[17],1700 nM
same,inhibition,[14],inactive
same,Ki,[6],15 nM
same,selectivity ratio,[15],4
same,K,[7],0.055 s⁻¹
same,Ki,[12],258 nM
same,Ki,[16],60 nM
same,inhibition,[4],11%
same,K,[8],0.01 s⁻¹
same,EC50,[18],4800 nM
same,Ki,[1],98 nM
same,CC50,[11],> 100000 nM
same,inhibition,[5],22%
same,Activity,[2],Active
Cc1ccc(C[C@H](NC(=O)c2ccc3c(c2)OCCO3)C(=O)N[C@H](/C=C(\F)S(=O)(=O)Cc2ccccc2)CCc2ccccc2)cc1,inhibition,[13],8%
same,selectivity ratio,[15],6
same,Ki,[12],76 nM
same,Ki,[1],14 nM
O=C(N[C@@H](Cc1ccccc1)C(=O)N[C@H](/C=C(/F)S(=O)(=O)Oc1ccccc1)CCc1ccccc1)c1ccncc1,Ki,[1],525 nM
same,Activity,[2],Active
CN1CCN(C(=O)N[C@@H](Cc2ccccc2)C(=O)N[C@H](/C=C(\F)S(=O)(=O)c2ccccc2)CCc2ccccc2)CC1,inhibition,[3],inactive
same,CC50,[19],38000 nM
same,inhibition,[14],inactive
same,inhibition,[4],13%
same,EC50,[18],12500 nM
same,CC50,[11],10000 nM
same,inhibition,[5],16%
same,Activity,[2],Active
O=C(N[C@@H](Cc1ccccc1)C(=O)N[C@H](/C=C(\F)S(=O)(=O)Cc1ccccc1)CCc1ccccc1)c1cc(F)cc(F)c1,Ki,[1],124 nM
Cc1cccc(C[C@H](NC(=O)c2ccncc2)C(=O)N[C@H](/C=C(\F)S(=O)(=O)Cc2ccccc2)CCc2ccccc2)c1,selectivity ratio,[15],2
same,Ki,[12],122 nM
same,Ki,[1],61 nM
Cc1ccc(C[C@H](NC(=O)c2ccc3c(c2)OCCO3)C(=O)N[C@H](/C=C(\F)S(=O)(=O)c2ccccc2)CCc2ccccc2)cc1,EC50,[10],800 nM
same,CC50,[11],> 100000 nM
O=C(N[C@@H](Cc1ccccc1)C(=O)N[C@H](/C=C(\F)S(=O)(=O)Cc1ccccc1)CCc1ccccc1)c1ccc2c(c1)OCCO2,Ki,[1],46 nM
Cc1cccc(C[C@H](NC(=O)c2cc(F)cc(F)c2)C(=O)N[C@H](/C=C(\F)S(=O)(=O)Oc2ccccc2)CCc2ccccc2)c1,Ki,[6],21 nM
same,K,[7],0.055 s⁻¹
same,K,[8],0.01 s⁻¹
same,Ki,[1],152 nM
Cc1ccc(C[C@H](NC(=O)c2cc[n+]([O-])cc2)C(=O)N[C@H](/C=C/S(=O)(=O)Oc2ccccc2)CCc2ccccc2)cc1,Ki,[1],1.5 nM
O=C(N[C@@H](Cc1ccccc1)C(=O)N[C@H](/C=C(\F)S(=O)(=O)Oc1ccccc1)CCc1ccccc1)OCc1ccccc1,Ki,[1],158 nM
same,Activity,[2],Active
CN1CCN(C(=O)N[C@@H](Cc2ccccc2)C(=O)N[C@H](/C=C(\F)S(=O)(=O)c2ccccc2)CSCc2ccccc2)CC1,inhibition,[3],14%
same,CC50,[19],8700 nM
same,inhibition,[14],13%
same,inhibition,[4],71%
same,EC50,[18],3000 nM
same,CC50,[11],8000 nM
same,inhibition,[5],inactive
CSCC[C@@H](/C=C(\F)S(=O)(=O)c1ccccc1)NC(=O)[C@H](Cc1ccccc1)NC(=O)N1CCN(C)CC1,inhibition,[3],inactive
same,CC50,[19],43000 nM
same,inhibition,[4],inactive
same,EC50,[18],14100 nM
same,CC50,[11],77000 nM
same,inhibition,[5],18%
Cc1cccc(C[C@H](NC(=O)c2cc(F)cc(F)c2)C(=O)N[C@H](/C=C(\F)S(=O)(=O)Cc2ccccc2)CCc2ccccc2)c1,Ki,[1],380 nM
CN1CCN(C(=O)N[C@@H](Cc2ccccc2)C(=O)N[C@H](/C=C/S(=O)(=O)c2ccccc2)CCc2ccccc2)CC1 [K-777],CC50,[19],41000 nM
same,EC50,[18],180 nM
same,CC50,[11],> 10000 nM
CSCC[C@@H](/C=C(\F)S(=O)(=O)c1ccccc1)NC(=O)[C@H](Cc1ccccc1)NC(=O)c1ccncc1,Ki,[17],1000 nM
same,selectivity ratio,[15],10
same,Ki,[12],577 nM
same,Ki,[1],56 nM
Cc1ccc(C[C@H](NC(=O)c2cc(F)cc(F)c2)C(=O)N[C@H](/C=C(\F)S(=O)(=O)c2ccccc2)CCc2ccccc2)cc1,Ki,[1],100 nM
Cc1cccc(C[C@H](NC(=O)c2ccc3c(c2)OCCO3)C(=O)N[C@H](/C=C(\F)S(=O)(=O)c2ccccc2)CCc2ccccc2)c1,Ki,[1],35 nM
Cc1cccc(C[C@H](NC(=O)c2ccncc2)C(=O)N[C@H](/C=C(\F)S(=O)(=O)Oc2ccccc2)CCc2ccccc2)c1,inhibition,[13],50%
same,Ki,[6],7 nM
same,selectivity ratio,[15],4
same,K,[7],0.062 s⁻¹
same,Ki,[12],266 nM
same,Ki,[16],30 nM
same,K,[8],0.005 s⁻¹
same,Ki,[1],94 nM
Cc1ccc(C[C@H](NC(=O)c2ccc3c(c2)OCCO3)C(=O)N[C@H](/C=C(\F)S(=O)(=O)Oc2ccccc2)CCc2ccccc2)cc1,inhibition,[3],inactive
same,inhibition,[13],14%
same,inhibition,[14],11%
same,Ki,[6],7 nM
same,selectivity ratio,[15],6
same,K,[7],0.065 s⁻¹
same,Ki,[12],348 nM
same,Ki,[16],39 nM
same,inhibition,[4],22%
same,K,[8],0.005 s⁻¹
same,EC50,[18],140 nM
same,Ki,[1],98 nM
same,CC50,[11],> 100000 nM
same,inhibition,[5],31%
Cc1cccc(C[C@H](NC(=O)c2ccc3c(c2)OCCO3)C(=O)N[C@H](/C=C(\F)S(=O)(=O)Cc2ccccc2)CCc2ccccc2)c1,Ki,[1],92 nM
Cc1cccc(C[C@H](NC(=O)c2cc(F)cc(F)c2)C(=O)N[C@H](/C=C(\F)S(=O)(=O)c2ccccc2)CCc2ccccc2)c1,Ki,[1],329 nM
Cc1cccc(C[C@H](NC(=O)c2ccc3c(c2)OCCO3)C(=O)N[C@H](/C=C(\F)S(=O)(=O)Oc2ccccc2)CCc2ccccc2)c1,Ki,[6],10 nM
same,K,[7],0.074 s⁻¹
same,K,[8],0.015 s⁻¹
same,Ki,[1],59 nM
O=C(N[C@@H](Cc1ccccc1)C(=O)N[C@H](/C=C(\F)S(=O)(=O)c1ccccc1)CCc1ccccc1)c1cc(F)cc(F)c1,Ki,[1],350 nM
O=C(N[C@@H](Cc1ccccc1)C(=O)N[C@H](/C=C(\F)S(=O)(=O)Cc1ccccc1)CCc1ccccc1)c1ccncc1,inhibition,[13],44%
same,Ki,[12],226 nM
same,Ki,[1],53 nM
